Tests used:
[1] = system: Human colon carcinoma HCT116 cells; assay: Anti-proliferative effect, Alamar Blue assay, HCT116; assay type: cell-based; conditions: 4-day incubation; for IC50: Homo sapiens, HCT-116, 96 h, read-out: HCT116 antiproliferative activity pIC50 (converted)
Experimental: Human colon carcinoma HCT116 cells obtained from the ATCC were cultured in McCoy's 5A medium supplemented with 2 mM L-Glutamine, 50 μg/ml gentamicin and 10% heat inactivated fetal calf serum.
(§1) Resazurin was purchased from Aldrich (Prod. No. 199303). Potassium ferrocyanide, potassium ferricyanide, KH2PO4 and K2HPO4 were purchased from Sigma (Prod. Nos. P9387, P8131, P5655 and P8281, respectively).
(§2) Potassium Phosphate Buffer 0.1 M (PPB) was made as follows: 2.72 gram KH2PO4 and 13.86 gram K2HPO4 were dissolved in 500 ml milli-Q H2O, the pH was adjusted to pH 7.4 and the volume was brought to 1 liter with milli-Q H2O; the buffer was filter sterilised and stored at room temperature. Resazurin stock solution (PPB-A) was prepared fresh by dissolving 45 mg resazurin in 15 ml PBS. 30 mM potassium ferricyanide (PPB-B) was prepared by dissolving 0.987 gram potassium ferricyanide in 100 ml PPB. 30 mM potassium ferrocyanide (PPB-C) was prepared by dissolving 1.266 gram potassium ferrocyanide in 100 ml PPB.
(§3) Mixture of PPB-A, PPB-B and PPB-C was prepared by mixing equal volumes of the respective solutions. Resazurin work solution (herein termed “Alamar Blue” solution) was prepared by diluting said mixture 20× (vol/vol) in PPB and filter sterilising; the Alamar Blue solution could be kept at 4° C. for a maximum of 2 weeks.
(§4) For experiments in 384 wells plates the cells were seeded at a density of 4.5×10^3 cells/ml in Falcon 384-well culture plates (Life Technologies, Merelbeke, Belgium), black with clear bottom, in 45 μl culture medium. Cells were allowed to adhere to plastic for 24 hours. The tested compound was pre-diluted (1/50 in culture medium) and 5 μl pre-diluted compound was added to the wells. Following 4-day incubation, 10 μl of the Alamar Blue solution was added to each well and the cells were further incubated for 4 hours (HCT116) or 24 hours (PC-3) at 37° C. The fluorescence intensity was measured for each well on a Fluorescence plate reader (Fluoroskan, Labsystems, 540 nm excitation and 590 nm emission)
(§5) The antiproliferative activity was calculated as percentage of remaining viable cells in treated versus control (untreated cells) conditions. Within an experiment, the result for each experimental condition is the mean of 3 replicate wells. When appropriate, the experiments were repeated to establish full concentration-response curves. When appropriate, IC50-values (concentration of the drug, needed to reduce cell growth to 50% of the control) were computed using probit analysis for graded data (Finney, D. J., Probit Analyses, 2nd Ed. Chapter 10, Graded Responses, Cambridge University Press, Cambridge 1962). Herein the effects of test compounds are expressed as pIC50 (the negative log value of the IC50-value) (see Table 3).

[2] = system: human prostate cancer PC3 cells; assay: Eb1 cellular assay (Eb1 Comet assay); assay type: cell-based; conditions: 1 hour treatment, LAC = concentration where Eb1 foci absent in at least 50% of treated cells
Experimental: The Eb1 Comet assay relies on the detection of the Eb1 protein at the plus end of polymerizing microtubules (Mimori-Kiyosue, 2000) using indirect immunofluorescence. Disruption of microtubule dynamics through de-polymerization or stabilization results in a de-localization of Eb1 from the growing microtubule ends and this is visualized by the disappearance of Eb1 containing cytoplasmic foci.
Briefly, human prostate cancer PC3 cells obtained from the American Type Culture Collection were grown in 96-well plates (Greiner, cat. no. 655090) in HAM's F12 medium as recommended by the provider (ATCC). The cells were treated for 1 hour at 37° C. with compounds dissolved in DMSO (0.6% final DMSO concentration). The culture medium was then removed by aspiration and the cells were fixed by adding cold methanol (−20° C.). After a 15 minutes incubation at −20° C., the cells were washed twice with DPBS (Gibco) containing 0.5% Triton X-100. Mouse Eb1 antibody (BD Transduction Laboratories, cat. no. 610534) was added to the cells (1/250 dilution in DPBS containing 1% BSA) and incubated overnight at room temperature. The antibody was subsequently removed and the cells washed twice with DPBS, 0.5% Triton X-100. Secondary goat anti-mouse antibody conjugated to Alexa 488 fluorescent dye (Molecular Probes) was added at a 1/500 dilution in DPBS, 1% BSA and incubated for 1 hour at 37° C. The cells were washed twice with DPBS, 0.5% Triton X-100 and then DPBS containing 0.5% Triton X-100 and 1/5000 Hoechst 33342 (Molecular Probes) was added. Microscopy based Eb1 foci visualization was carried out using an IN Cell Analyser 1000 (Amersham Biosciences) using a 20× objective. Compound dependent microtubule disruption was visually determined by the disappearance in Eb1 foci. The lowest active concentration (LAC) was determined as the concentration where Eb1 foci were absent in at least 50% of the treated cells. Herein the effects of test compounds are expressed as pLAC (the negative log value of the LAC-value) (see Table 3).

[3] = system: Human prostate cancer PC-3 cells; assay: Anti-proliferative effect, Alamar Blue assay, PC-3; assay type: cell-based; set-up: key to PC3 antiproliferative activity pIC50: pIC50 = negative log of IC50 (conc. reducing growth to 50% of control); conditions: 4-day incubation; for IC50: Homo sapiens, 96 h, read-out: PC3 antiproliferative activity pIC50 (converted)
Experimental: Human prostate cancer PC-3 cells obtained from the ATCC were cultured in HAM'S F12 medium supplemented with 1 mM Sodium Pyruvate, 1.5 g/L Sodium Bicarbonate, 50 μg/ml gentamicin, non-essential amino acids and 10% fetal calf serum.
as §1, §2, §3, §4, §5

[4] = system: α-β-Tubulin; assay: α-β-Tubulin polymerization assay; assay type: biochemical; set-up: key: a compound showing 0 to 50% inhibition at 20 μM is reported as score 1; Score 2 compounds are defined as compound showing more than 50% inhibition at 20 μM and less than 50% inhibition at 5 μM; a compound showing more than 50% inhibition at 5 μM is reported as score 3; conditions: inhibition of polymerization at 20 μM and 5 μM, reported as score
Experimental: The tubulin polymerization assay is an adaptation of an assay originally described by Bonne, D. et al. (J. Biol. Chem., 1985, 260:2819-25). The assay kit was purchased from Cytoskeleton, Inc. (catalogue number BK011) and the assay was performed as described by the supplier with the following modifications. The assay was run in a 384-well black Proxiplate (Perkin Elmer) and volumes were adapted accordingly. The reactions were carried out in a final volume of 10 μl. Compounds were added to 25 μl of the reaction mix in 96-well PP plates (Corning) on ice and 10 μl of this mixture was dispensed into duplicates of the 384-well Proxiplates pre-warmed to 37° C. in a Fluoroskan Ascent plate reader (Thermo Scientific). Fluorescence measurements were taken every minute for one hour. The maximum slope of each well was determined (linear regression through 4 consecutive points) and polymerization was calculated as a percentage of polymerization observed in the absence of compound. Compounds were first measured at a concentration of 20 μM and then at 5 μM for those showing more than 50% inhibition at 20 μM as compared to the polymerization observed in the absence of compound. Results are reported in Table F-2 as scores defined as: a compound showing 0 to 50% inhibition at 20 μM is reported as score 1; a compound showing more than 50% inhibition at 5 μM is reported as score 3.

SMILES | HCT116 antiproliferative activity pIC50 [1] | Eb1 pLAC [2] | PC3 antiproliferative activity pIC50 [3] | tubulin polymerization score [4] | IC50 [1] [nM] | IC50 [3] [nM]
CN1Cc2ccc([C@@](C)(C#N)Cc3cccc(C#N)c3)cc2NC1=O [Compound 27] | 7.1 | 6.5 | 6.8 | 3 (a compound showing more than 50% inhibition at 5 μM is reported as score 3) | – | –
CCN1Cc2ccc(C(C#N)(CC)Cc3nc(OC)cc(OC)n3)cc2NC1=O (stereo not shown) [Compound 30] | 6.4 | 6.5 | 6.0 | 3 (a compound showing more than 50% inhibition at 5 μM is reported as score 3) | – | –
CCN1Cc2cc(F)c(C(C)(C#N)Cc3nc(OC)cc(OC)n3)cc2NC1=O (stereo not shown) [Compound 25] | 6.3 | 6.5 | 6.3 | 3 (a compound showing more than 50% inhibition at 5 μM is reported as score 3) | – | –
CN1Cc2ccc(C(C)(C#N)Cc3cccc(C#N)c3)cc2NC1=O (stereo not shown) [Compound 28] | 6.8 | 6.5 | 6.5 | 3 (a compound showing more than 50% inhibition at 5 μM is reported as score 3) | – | –
CCN1Cc2ccc(C(C)(C#N)Cc3nc(OC)cc(OC)n3)cc2NC1=O (stereo not shown) [Compound 18] | 6.6 | – | 6.6 | 3 (a compound showing more than 50% inhibition at 5 μM is reported as score 3) | – | –
CCN1Cc2ccc(C(C)(C#N)Cc3cccc(C)c3)cc2NC1=O (stereo not shown) [Compound 22] | 6.7 | – | 6.4 | – | – | –
CCN1Cc2ccc(C(C)(C#N)Cc3cccc(C#CCOC)c3)cc2NC1=O (stereo not shown) [Compound 36] | 6.7 | 7 | 6.6 | 3 (a compound showing more than 50% inhibition at 5 μM is reported as score 3) | – | –
CCN1Cc2ccc(C(C)(C#N)Cc3cccc(F)c3)cc2NC1=O (stereo not shown) [Compound 24] | 6.8 | – | 6.6 | – | – | –
CCN1Cc2ccc([C@@](C)(C#N)[C@@H]3CCc4c(Cl)ccnc43)cc2NC1=O [Compound 14] | – | – | – | – | 501 | 1260
CCN1Cc2cc(F)c(C(C)(C#N)Cc3cccc(C#N)c3)cc2NC1=O (stereo not shown) [Compound 26] | 6.6 | 6.5 | 6.3 | 3 (a compound showing more than 50% inhibition at 5 μM is reported as score 3) | – | –
CCN1Cc2ccc(C(C)(C#N)Cc3nc4ccccc4s3)cc2NC1=O (stereo not shown) [Compound 23] | 6.4 | – | 6.3 | – | – | –
CCN1Cc2ccc(C(C)(C#N)Cc3cccc(C#CCO)c3)cc2NC1=O (stereo not shown) [Compound 11] | – | 7 | – | 3 (a compound showing more than 50% inhibition at 5 μM is reported as score 3) | 316 | 398
CCN1Cc2ccc(C(C)(C#N)Cc3cc(OC)cc(OC)c3)cc2NC1=O (stereo not shown) [Compound 19] | 6.4 | 6.5 | 6.2 | 3 (a compound showing more than 50% inhibition at 5 μM is reported as score 3) | – | –
CCN1Cc2ccc(C(C)(C#N)Cc3ccccc3)cc2NC1=O (stereo not shown) [Compound 16] | 6.2 | 6 | 5.9 | 2 | – | –
CCN1Cc2ccc(C(C)(C#N)Cc3cccc(C#N)n3)cc2NC1=O (stereo not shown) [Compound 21] | 6.3 | 5.5 | 6.1 | 2 | – | –
CCN1Cc2ccc(C(C)(C#N)Cc3cc(Cl)cc(Cl)c3)cc2NC1=O (stereo not shown) [Compound 20] | 6.4 | 6.5 | 6.2 | – | – | –
CCN1Cc2ccc(C(C)(C#N)Cc3cccc(C#N)c3)cc2NC1=O (stereo not shown) [Compound 17] | 6.8 | – | 6.6 | 3 (a compound showing more than 50% inhibition at 5 μM is reported as score 3) | – | –
CCN1Cc2ccc(C(C)(C#N)CNCc3ccc(C#N)cc3)cc2NC1=O (stereo not shown) [Compound 12] | – | – | – | – | 631 | 1260
CCN1Cc2ccc(C(C)(C#N)CCOc3ccc(C#N)cc3)cc2NC1=O (stereo not shown) [Compound 15] | – | – | – | – | 100 | 200

From patent US8168644B2, “Quinazolinone derivatives as tubulin polymerization inhibitors” (Janssen Pharmaceutica NV, priority 2008, dated 2012)
